Experimental data published in US11385234B2, “Methods and systems for detecting an analyte or classifying a sample” (Commonwealth Scientific and Industrial Research Organisation, priority 2012, dated 2022).

How the values were obtained:
[1] = system: SGSR-114/113 (BRET^2 tagged str-114/113 chimera); assay: BRET^2 response of SGSR-114/113 to volatile ligands, plate based; assay type: biochemical, C. elegans; conditions: in vitro
Text: SGSRs are chimaeras of C. elegans str-112, str-113, str-114, str-115, str-116 and str-114/113 with the BRET^2 tags GFP^2 and RLuc or RLuc2 inserted in the third intracellular loop and at the C-terminus, respectively. The positions of the third intracellular loops of STR proteins were predicted using “TMAP” an algorithm from “The Biology Workbench” (a web-based tool for prediction of transmembrane segments http.//seqtool.sdsc.edu). These were named SGSR-112, SGSR-113, SGSR-114/113, SGSR-114, SGSR-115 and SGSR-116.
Except for SGSR-112, which was commercially synthesised, SGSR expression cassettes were designed and made by introducing multiple restriction sites into the relevant gene-specific PCR primers. PCR products containing those sites were cloned into TOPO PCR vectors (Invitrogen) and then digested with the corresponding restriction enzymes (REs) and ligated into the expression cassettes.
The SGSR 114/113 chimera was constructed by modifying C. elegans SGSR-113 (by replacing the first fragment of str-13, 113-1 using the restriction sites NcoI and BspEI in the cassette with the corresponding fragment of str-114, str-114-1). Str114-1 contains the first 720 str-114 nucleotides of, corresponding to its first 240 amino acids and was amplified by high fidelity PCR using primers incorporating the restriction sites, NcoI at the 5′ end and BspEI at the 3′ end.
The inventors selected a number of specific volatiles (including 1-hexanol, 1 butanol, butane-2,3-dione, 3-hydroxybutanone, 2-pentanone and 2 nonanone) for further testing based on GC-MS analysis of the headspace of OP50 bacteria grown on LB. […] This is the first time that a volatile ligand (or indeed any ligand) has been identified for a BRET-based GPCR sensor, in the absence of prior knowledge of the ligand based on research with the unmodified parental GPCR.

[2] = system: OGOR2; assay: Real-time on-chip microfluidic diacetyl assay with OGOR2; assay type: biochemical, C. elegans; conditions: 1 fM diacetyl, 290 nM protein, 12.5 μM substrate, flow rates 50, 100, 200 and 300 μl/hr
Experimental: On-chip real-time measurements were carried out in a three-inlet microfluidic mixer device integrated with an optical detection chamber. […] The second inlet contained diacetyl (2,3-butanedione) diluted to give a final concentration of 1 fM in PBS, or PBS only as a control. The third inlet was used to introduce sensor protein suspension, which was prepared by resuspending the membrane pellet describe above in 1 mL of PBS and further diluting as required. The on-chip mixing was initiated by using input flow rates ranging from 50-400 μl/hr.
(§1) BRET^2 signals were calculated as the ratio of emission intensity at 515 nm to that at 410 nm. All data are reported as the mean±standard deviation (SD) or mean±standard error of the mean (SEM) as described in the text. Curves were fitted with log [agonist] vs response curves with variable slopes following normalization of data, using Graphpad Prism version 5.03 for Windows. Two-tailed unpaired t-tests were carried out in Graphpad prism. Statistical significance was defined as p<0.05.

[3] = system: OGOR2; assay: Endpoint on-chip microfluidic diacetyl assay with OGOR2; assay type: biochemical, C. elegans
Experimental: Endpoint microfluidic assays were carried out on-chip in two inlet microfluidic mixer devices integrated with an optical detection chamber. […] OGOR and OGOR2 membrane pellets were resuspended in 1 mL of PBS, diluted as required and incubated at 28° C. for 45 minutes with diacetyl solution at concentrations ranging from 1 aM-1 μM. The preparation was introduced in the second inlet. On-chip mixing was initiated with an input flow rate of 400 μl/hr for each inlet.
as §1

[4] = system: OGOR2 (ODR-10 receptor fused to RLuc2 and GFP^2); assay: Diacetyl assay with OGOR2, 96-well plate BRET^2; assay type: biochemical, C. elegans
Text: (§2) Chimaeric BRET^2 tagged odorant receptors have the BRET^2 components inserted into the third intracellular loop (IC3) and at the C-terminus of the C. elegans odorant receptor with green fluorescent protein, GFP^2 at IC3 and Renilla luciferase, RLuc at the C-terminus of the protein (OGOR). Using site-directed mutagenesis the RLuc2 mutations were introduced into the pYES-DEST-52 OGOR sequence. Primers 1 and 2 (Table 3) were used to introduce the mutation C124A and primer pair 3 and 4 was used to introduce the M185 V mutation to make the construct named OGOR2 (FIG. 18, SEQ ID NO:1, SEQ ID NO-2).
Yeast colonies were inoculated in 10 mL SCMM-U (S. cerevisiae minimal media, composition per 200 mL: 1.34 g […] without amino acids and 0.38 g yeast supplementation media without uracil) supplemented with 2% glucose and incubated overnight at 28° C. An aliquot of the overnight culture was used to inoculate SCMM-U supplemented with 2% raffinose and 2% galactose to a final O.D..600 of 0.4 and incubated for an additional 72 h at 15° C. with shaking at 200 rpm.
Cell cultures were centrifuged at 1500×g for 5 minutes at 4° C. Cells were resuspended in 1 mL of sterile water and centrifuged for 1 minute at 10,000×g. Cells were resuspended in 4 mL phosphate buffer solution (PBS). The cells were lysed by French press (˜18000 psi) and cellular debris was removed by centrifugation at 15000×g (4° C.) for 15 minutes. Following this the supernatant fraction was centrifuged at 40,000 rpm (Beckman Coulter L-80 ultra-centrifuge) for 1 hour at 4° C. The supernatant was decanted and the membrane pellet was resuspended in 1 mL of PBS and stored at 4° C. for 48 hrs.
All ligand solutions were prepared directly in water. The OGOR concentration was normalized using GFP^2 intensity at 510 nm. Assays were carried out in 96-well plates (Perkin-Elmer) in a total volume of 100 μL in phosphate buffered saline. OGOR was incubated with each ligand for 45 minutes at 28° C. in wells sealed with Topseal-A™ (Packard). […]
BRET^2 signals were calculated as the ratio of emission intensity at 515 nm to that at 410 nm. […]

[5] = system: OGOR2; assay: Diacetyl detection with highly diluted OGOR2, wide bore chamber and liquid light guide; assay type: biochemical, C. elegans; conditions: 1 μM diacetyl
Experimental: On-chip measurements were carried out with a microfluidic chip similar to that shown in FIG. 31A with two inlets, a passive mixing element and a detection chamber. An aluminium mirror was placed on top of the reaction chamber to enhance the BRET signal.
A number of variations were compared with the original set up (FIG. 31A). The diameter of the reaction chamber was increased to 4 mm (FIG. 34A) from an original diameter of 2 mm. The height of the reaction chamber was varied between 1 and 2 mm. A single optical fiber of diameter 0.4-1.0 mm (FIG. 31A) was replaced with a liquid light guide or fibre-optic bundle of 5 mm core diameter NA=0.59, feeding into a dichroic block (FIG. 34A), or a bifurcated light guide of trunk core diameter 6 mm branch core diameter of 4 mm (FIG. 37) or a multifurcated light guide of trunk core diameter 8 mm and branch core diameter 4 mm (FIGS. 38 and 40).
OGOR2 sensor solution was prepared at day 4 in PBS at high (100 and 50 times) dilution ratios from stock solution. Clz400a was prepared in PBS at 31.25 μM. When diacetyl was included, it was added to the OGOR2 sensor solution at a final concentration of 1 μM. For the control experiment, only DI water was added. The sensor tubes without and with diacetyl were both incubated at 28° C. in 30 min.

[6] = system: OGOR; assay: Diacetyl assay with original OGOR sensor (native RLuc), microwell; assay type: biochemical, C. elegans; conditions: original OGOR sensor incorporating native RLuc
Text: as §2
All ligand solutions were prepared directly in water. The OGOR concentration was normalized using GFP^2 intensity at 510 nm. Assays were carried out in 96-well plates (Perkin-Elmer) in a total volume of 100 μL in phosphate buffered saline. OGOR was incubated with each ligand for 45 minutes at 28° C. in wells sealed with Topseal-A™ (Packard).
Following the incubation, Coelenterazine 400a substrate (Biosynth) was added to a final concentration of 5 μM.
BRET^2 signals were calculated as the ratio of emission intensity at 515 nm to that at 410 nm. All data are reported as the mean±standard deviation (SD) or mean±standard error of the mean (SEM) as described in the text. […]

[7] = biological target: T1, thrombin (Bos taurus, UniProt P00735); assay: Hirudin pre-incubation in thrombin cleavage assay of GFP^2-RG-RLuc (BRET^H ratio, SDS-PAGE); assay type: biochemical
T1 construct: purchased Amersham Biosciences
Experimental: Various concentrations of thrombin were added to purified GFP^2-RG-RLuc biosensor and incubated at 30° C. for 90 minutes. To measure the extent of thrombin cleavage the sample mixture following incubation and the native CLZ solution were pumped from separate syringes into the two inlet channels and allowed to flow through the main channel. Diffusion between the two streams induced a BRET reaction at the interface. Recombinant hirudin from yeast (Sigma) was incubated with thrombin at room temperature for ten minutes prior to the protease assay.
To confirm complete thrombin cleavage of the GFP^2-RG-RLuc biosensor, SDS-PAGE analysis was carried out. Proteins (2.5 μg) were diluted in 1× sample loading buffer (Invitrogen) for SDS-gel electrophoresis in a 12% Bis-Tris gel with MOPS running buffer (NuPAGE, Invitrogen). Bands were stained with Fast Stain™ (Fisher) and then visualised.
Using the microplate spectrometer, hybrid BRET ratios were calculated as the ratio of bioluminescence emissions measured at 500 nm and 470 nm. Using the microchip system, the hybrid BRET ratio was calculated as ratio of the long wavelength emission (515 nm-555 nm) to the short wavelength emission (430 nm-455 nm) (Pfleger and Eidne, 2006). To allow comparison between the two different detection systems, the Hybrid BRET ratios were normalized by expressing them as a multiple of the BRET ratio without added thrombin, in the same measurement system. All data are reported as means±standard deviation (SD). Two-tailed unpaired t-tests were performed using Graphpad prism (version 5.00 for Windows, Graphpad Software, San Diego, Calif., USA). Statistical significance is defined as p<0.05.

[8] = system: GFP^2—MBP—RLuc2 W140A; assay: BRET^2 tagged MBP W140A mutant, plate reader; assay type: binding; conditions: 0.1 mM maltose
Experimental: The W140 mutation was introduced into pRSET GFP^2—MBP—RLuc2 using site-directed mutagenesis (Stratagene) using primers C1 ([…]) (SEQ ID NO:11) and C2 ([…]) (SEQ ID NO:12). Nucleotide and amino acid sequences for BRET^2 tagged MBP receptor provided a SEQ ID NOs: 3 to 6).
1 μM purified protein was used for all the energy transfer assays (final volume of 100 μL). 1 μM purified protein was prepared by diluting the protein in phosphate buffer solution (PBS, 0.058 M […], 0.017 NaH2PO4, 0.068 M NaCl (pH 7.4)). Purified protein was incubated with the sugar dissolved in double deionised water or water for 30 minutes at 28° C. Following incubation 16.67 μM coelenterazine 400a was added and the signal was recorded immediately.
(§3) BRET ratios were calculated as the ratio of maximum acceptor emission intensity to maximum donor emission intensity.

[9] = biological target: T2, FLIPmal-2μ (FRET tagged MBP receptor) (Escherichia coli, UniProt P0AEX9); conditions: cited from earlier work
T2 construct: fused on or other part: FRET pair fused to the N- and C-terminus of MBP; From Fehr et al. 2002 these are a cyan and a yellow GFP variant

[10] = biological target: GFP^2—MBP—RLuc2 (Escherichia coli, UniProt P0AEX9); assay: BRET^2 tagged MBP sugar assay, plate reader; assay type: binding; conditions: for response of BRET biosensor to sugar: 0.1 mM sugar, 30 minutes at 28° C., 1 μM protein
Experimental: 1 μM purified protein was used for all the energy transfer assays (final volume of 100 μL). […] Purified protein was incubated with the sugar dissolved in double deionised water or water for 30 minutes at 28° C.
as §3
All data analysis was carried out using GraphPad Prism (version 5 for Windows, Graphpad Software, San Diego, Calif., USA). All data will be reported as means± standard deviation (SD) unless otherwise stated in the text. Two-tailed unpaired t-tests will be performed using Graphpad prism. Statistical significance is defined as p<0.05.

[11] = biological target: GMR sensor (GFP^2—MBP—RLUC2) (Escherichia coli, UniProt P0AEX9); conditions: 0.1 mM sugar
Experimental: On-chip measurements were carried out with microfluidic mixers with two inlets, a passive micromixer and an integrated optical detection chamber. BRET^2 measurements were recorded by using two photo multiplier tubes one equipped with an RLuc/Clz400a emission filter (410 nm bandpass 80 nm) and the other with a GFP^2 emission filter (515 nm bandpass 30m). The optical emission was collected by using an optical fiber with 1 mm core diameter aligned with on-chip optical detection chamber through a dichroic mirror.
The preparation was then mixed on-chip with 5 μM coelenterazine 400a and the optical signal was recorded from the detection chamber. The control experiments was carried out by incubating protein preparations with water and mixing on the chip under the same conditions.
Sensitivity assays were carried out on a two input microfluidic mixing device (FIG. 8b) with a serpentine common channel of L=18 mm. The BRET reaction chamber was Ø=4 mm and H=1 mm with no mirror. A bifurcated light guide was used with a 6 mm trunk and NA=0.59. […] The incubated sample and 31.25 μM Clz400a substrate were each pumped onto the chip at input flow rates of 400 μl/hr. The trunk end of the light guide was used to collect signal from the BRET reaction chamber. […] The BRET^2 signal was measured at each concentration. […]

CC(=O)C(C)=O [diacetyl, 2,3-butanedione]
detectable level [1]: parts per quadrillion (sub pM) levels | decrease in BRET^2 ratio [2]: 27.4% | decrease in BRET^2 signal ([3]; 10 fM diacetyl, microfluidic endpoint): 36.9% | EC50 ([3]; on-chip microfluidic endpoint): ~10 aM | decrease in BRET^2 signal ([4]; 1 μM diacetyl, microplate wells): 21.4% | EC50 ([4]; microwell plate): 11.4 aM | linear range of dose-dependent response ([4]; microwell plate, six log units): 10^−18 to 10^−12 M | Diacetyl-dependent reduction in BRET^2 ratio ([5]; 50 times sensor dilution): 14.7% | Diacetyl-dependent reduction in BRET^2 ratio ([5]; 100 times sensor dilution): 13.7% | percentage change in BRET^2 signal in response to diacetyl [6]: 32%

hirudin
BRET^H ratio with pre-addition of hirudin ([7]; 54 nM thrombin pre-treated with 2 units hirudin, 10 minutes, room temperature): 1.08±0.14 | effect of hirudin on thrombin induced reduction in BRET^H ratio ([7]; 2 units hirudin, 10 minutes, room temperature): prevented the thrombin induced reduction | effect of hirudin on cleavage of fusion protein, SDS-PAGE ([7]; 2 units hirudin, SDS-PAGE lane 6): inhibited the formation of the two components

OC[C@H]1O[C@H](O[C@H]2[C@H](O)[C@@H](O)C(O)O[C@@H]2CO)[C@H](O)[C@@H](O)[C@@H]1O (mixture of isomers) [maltose]
BRET^2 response to maltose [8]: abolished | signal change, FRET ([9]; Fehr et al., 2002): ~12% | linear range of FRET response ([9]; two log units): 0.26 to 21.12 µM | incubation time at which BRET^2 response reached a maximum ([10]; 0.1 mM maltose): 30 min

OC[C@H]1O[C@@](CO)(O[C@H]2O[C@H](CO)[C@@H](O)[C@H](O)[C@H]2O)[C@@H](O)[C@@H]1O [sucrose]
increase in BRET^2 ratio over no sugar control, on chip [11]: 15% | response of BRET biosensor to sugar [10]: did not respond

OC[C@H]1O[C@H](OC[C@H]2O[C@H](O[C@]3(CO)O[C@H](CO)[C@@H](O)[C@@H]3O)[C@H](O)[C@@H](O)[C@@H]2O)[C@H](O)[C@@H](O)[C@H]1O [raffinose]
response of BRET biosensor to sugar [10]: did not respond
